Tests used:
primary tumors = experiment: in vitro chemosensitivity assay of primary tumors (ATP-measurement, AUC of dose-response curve); format: cell-based; details: 6 days of incubation; for response (chemosensitivity) of tumors of the basal subtype: basal molecular subtype (MLPH<2000); for response (chemosensitivity) of tumors of the luminal A subtype: luminal A molecular subtype (ESR1 >6000, PGR >160)
Experimental: In a second step for the identification of an optimal predictive gene signature in vitro chemosensitivity assays of primary tumors are performed to determine the response of a tumor towards a single chemotherapeutic agent. In said in vitro chemosensitivity assays the primary tumors were cultivated in different assays with increasing concentrations of the agents. After 6 days of incubation the vitality of the tumor cells were determined with an ATP-measurement. Hereby, the growing inhibition for the different agent concentrations could be determined and a dose-response curve could be provided. For each tumor the Area under the dose-response curve (AUC) could be determined for the different agents. The AUC is used to evaluate the response of a tumor towards a chemotherapeutic agent. The bigger the AUC, the more sensitive is the tumor towards the agent. The tumor samples were classified according to their sensitivity towards the agents into three classes (resistant, intermediate, sensitive) via the tertiles of the AUC arrangement.

NCI 60 cell lines = experiment: NCI 60 cell line chemosensitivity (GI-50); format: cell-based; details: AKR1C1 cut-off score 5000
Experimental: In this study several tumor cell lines of different cancer types were tested for their sensitivity towards several chemotherapeutic agents. The GI-50 value (concentration, where half of the tumor cells are inhibited regarding growing) for Paclitaxel was used to test, whether AKR1C1 is appropriate for a prediction of a Paclitaxel sensitivity in cell lines. […] The defined cut-off score (5000) allowed a significant classification (p=0.0049) of the resistant and sensitive tumor cells of the NCI 60 cell lines (FIG. 14).
NCI 60 cell lines were classified with the marker gene AKR1C1 (cut-off score 5000). Onto the ordinate the concentration of Palitaxel is depicted, which is needed for the inhibition of half of the cells (GI-50). Altogether for Paclitaxel 54 GI-50 values for the cell lines were provided.

Structure (SMILES)	response (chemosensitivity) of tumors of the basal subtype (primary tumors)	response (chemosensitivity) of tumors of the luminal A subtype (primary tumors)	sensitivity (GI-50) of cell lines with high expression of AKR1C1 (NCI 60 cell lines)
COc1cccc2c1C(=O)c1c(O)c3c(c(O)c1C2=O)C[C@@](O)(C(=O)CO)C[C@@H]3O[C@H]1C[C@H](N)[C@@H](O)[C@H](C)O1 [Epirubicin]	particularly sensitive	resistant	
CC(=O)O[C@H]1C(=O)[C@@]2(C)[C@H]([C@H](OC(=O)c3ccccc3)[C@]3(O)C[C@H](OC(=O)[C@H](O)[C@@H](NC(=O)c4ccccc4)c4ccccc4)C(C)=C1C3(C)C)[C@]1(OC(C)=O)CO[C@@H]1C[C@@H]2O [Paclitaxel]	particularly sensitive	resistant	mainly are resistant
